Source: paper PMC11396972, “Synthesis of Hybrid Molecules with Imidazole-1,3,4-thiadiazole Core and Evaluation of Biological Activity on Trypanosoma cruzi and Leishmania donovani” (Molecules, 2024)

Legend:
[1] = test system: Leishmania donovani promastigotes (LD51 strain); assay: Proliferation of L. donovani promastigotes, MTT test, single concentration; type: cell-based; details: 72 h incubation, read-out: L. donovani % Inhibition ± SD (antiproliferative activity)
Method: A drug-free control (negative control) was included and positive controls were Metronidazole (Mtz), Benznidazole (Bnz), Amphotericin B (Aph), and Nifurtimox (Nfx), (50 μM). […] Parasites were collected in the logarithmic phase of growth before the experiments. It was arranged in plates of 96 wells, 4 × 10^5 promastigotes per well and incubated at room temperature °C for 24 h. Subsequently, the compounds to be evaluated, dissolved in DMSO (0.1% final), were added at a single concentration of 50 μM, a drug-free control (negative control) was included, and amphotericin B was used as leishmanicidal control. To select those compounds active on promastigotes, it was incubated for 72 h after and then MTT (5 mg/mL), dissolved in PBS, was added and incubated for 4 h in the dark. Finally, the cells were lysed with DMSO and the plate was read in a spectrophotometer at 570 nm.

[2] = test system: Leishmania donovani promastigotes (LD51 strain); assay: Estimation of IC50 on promastigotes of L. donovani, MTT test; type: cell-based; details: 72 h, eight concentrations 5–500 µM, triplicate
Method: (§1) Parasites were collected in the logarithmic phase of growth before the experiments. The test compounds, as well as the reference drugs, metronidazole, nifurtimox and amphotericin B, were previously dissolved in DMSO and then in LIT medium and added to the cultures at the required concentrations; the final DMSO concentration in cultures was 1% (v/v). Eight concentrations of each compound in the range 5–500 µM were tested and assayed in triplicate. Growth inhibition was assessed after 72 h incubation in the presence of the compounds by MTT (5 mg/mL), dissolved in PBS, and incubated for 4 h in the dark. Finally, the parasites were lysed with DMSO and the plate was read in a spectrophotometer at 570 nm.

[3] = Host cell toxicity assay, MTT; type: cell-based; details: African green monkey, Vero cells (uninfected); Vero cells, 48 h, MTT; read-out: CC50 (μM) cytotoxicity on Vero cells
Method: (§2) To determine the possible toxic effects of the compounds on the host cells, uninfected Vero cells, maintained in DMEM, BSF 10%, incubated at 37 °C in humidified 5% CO2, were counted in suspension in a Neubauer chamber and seeded at 2 × 10^4 cells/well in a 96-well plate. After 24 h compounds were added. […] A total of 5 mg/mL of MTT was added and incubated in darkness for 4 h. After this time, DMSO was added and the plate was read at 540 nm in a spectrophotometer Synergy HT (Biotek, Winooski, VT, USA).

[4] = test system: Trypanosoma cruzi epimastigotes (Y strain (TCII)); assay: Proliferation of T. cruzi epimastigotes, MTT test, single concentration; type: cell-based; details: 72 h incubation; for inhibition at 50 µM: Trypanosoma cruzi, 72 h, read-out: T. cruzi % Inhibition ± SD (antiproliferative activity); for T. cruzi % Inhibition ± SD (antiproliferative activity): 50 μM
Method: A drug-free control (negative control) was included and positive controls were Metronidazole (Mtz), Benznidazole (Bnz), Amphotericin B (Aph), and Nifurtimox (Nfx), (50 μM). […] Parasites were collected in the logarithmic phase of growth before the experiments. It was arranged in plates of 96 wells, 2 × 10^5 epimastigotes per well and incubated at 28 °C for 24 h. Subsequently, the compounds to be evaluated, dissolved in DMSO (0.1% final), were added at a single concentration of 50 μM. A drug-free control (negative control) was included, and benznidazole and nifurtimox were included as positive controls. […] Finally, the cells were lysed with DMSO and the plate was read in a spectrophotometer at 570 nm.

[5] = test system: Trypanosoma cruzi epimastigotes (Y strain (TCII)); assay: Estimation of IC50 on epimastigotes of T. cruzi, MTT test; type: cell-based; details: 72 h, eight concentrations 5–500 µM, triplicate
Method: as §1

Vero cells = assay: Host cell toxicity assay, MTT; type: cell-based; details: for L. donovani (SI) selectivity index: Vero cells CC50 versus L. donovani IC50; for T. cruzi (SI) selectivity index: Vero cells CC50 versus T. cruzi IC50
Method: as §2

Row | melting point | IC50 [5] | Compound | inhibition at 50 µM [1] | IC50 [2] | CC50 at 48 h [3] | inhibition at 50 µM [4] | T. cruzi % Inhibition ± SD (antiproliferative activity) [4] | L. donovani (SI) selectivity index (Vero cells) | T. cruzi (SI) selectivity index (Vero cells)
1 |  |  | C[C@@H]1[C@H](O)[C@@H](C)/C=C/C=C/C=C/C=C/C=C/C=C/C=C/[C@H](O[C@@H]2O[C@H](C)[C@@H](O)[C@H](N)[C@@H]2O)C[C@@H]2O[C@](O)(C[C@@H](O)C[C@@H](O)[C@H](O)CC[C@@H](O)C[C@@H](O)CC(=O)O[C@H]1C)C[C@H](O)[C@H]2C(=O)O [Aph, Amphotericin B, reference compound] | 62.4 ± 6.6% | 0.33 ± 0.02 µM | > 250 µM |  |  |  | 
2 | 252 °C |  | COc1cc(-c2nnc(Nc3ccc(C(=O)OCCn4c([N+](=O)[O-])cnc4C)cc3)s2)cc(OC)c1OC [Compound 23, 2-(2-Methyl-5-nitro-1H-imidazol-1-yl)ethyl-4-{[5-(3,4,5-trimethoxyphenyl)-1,3,4-thiadiazol-2-yl]amino}benzoate] | 12.7 ± 2.31% |  |  | 20.3 ± 6.73% |  |  | 
3 | 242 to 244 °C | 51.7 ± 6.59 µM | Cc1ncc([N+](=O)[O-])n1CCOC(=O)c1ccc(Nc2nnc(-c3ccc(Cl)cc3)s2)cc1 [Compound 20, 2-(2-Methyl-5-nitro-1H-imidazol-1-yl)ethyl-4-{[5-(4-chlorophenyl)-1,3,4-thiadiazol-yl]amino}benzoate] | 40.4 ± 4.18% | 54.5 ± 8.51 µM | > 500 µM | ~50% | 49.37 ± 4.45% | >9.17 | >9.67
4 | > 300 °C |  | Cc1ncc([N+](=O)[O-])n1CCOC(=O)c1ccc(Nc2nnc(-c3ccc(-c4ccccc4)cc3)s2)cc1 [Compound 22, 2-(2-Methyl-5-nitro-1H-imidazol-1-yl)ethyl-4-{[5-((1,1’-biphenyl)-4-yl)-1,3,4-thiadiazol-2-yl]amino}benzoate] | 12.9 ± 2.08% |  |  | 7 ± 2.28% |  |  | 
5 |  | 180 ± 18.9 µM | Cc1ncc([N+](=O)[O-])n1CCO [Mtz, Metronidazole, reference compound] |  | 50.3 ± 11.9 µM |  | 12.2 ± 5.3% |  |  | 
6 |  |  | O=C(Cn1ccnc1[N+](=O)[O-])NCc1ccccc1 [Bnz, Benznidazole, reference compound] |  |  |  | 45.4 ± 6.21% |  |  | 
7 | 240 to 242 °C | 55.5 ± 7.2 µM | Cc1ncc([N+](=O)[O-])n1CCOC(=O)c1ccc(Nc2nnc(-c3ccccc3)s2)cc1 [Compound 21, 2-(2-Methyl-5-nitro-1H-imidazol-1-yl)ethyl-4-[(5-phenyl-1,3,4-thiadiazol-2-yl)amino]benzoate] | 71.4 ± 5.28% | 10.1 ± 2.21 µM | > 500 µM | ~50% | 58.35 ± 2.05% | >49.65 | >9.01
8 | 232 to 234 °C |  | Cc1ncc([N+](=O)[O-])n1CCOC(=O)c1ccc(Nc2nnc(-c3cccnc3)s2)cc1 [Compound 18, 2-(2-Methyl-5-nitro-1H-imidazol-1-yl)ethyl-4-[(5-(pyridin-3-yl)-1,3,4-thiadiazol-2-yl]amino)benzoate] | 10.1 ± 2.92% |  |  | 17.4 ± 14.4% |  |  | 
9 |  | 1.81 ± 0.45 µM | CC1CS(=O)(=O)CCN1/N=C/c1ccc([N+](=O)[O-])o1 (stereo not shown) [Nfx, Nifurtimox, reference compound] |  |  | > 90 µM | 83 ± 1.6% |  |  | 
10 | 202 to 204 °C | 56.3 ± 6.83 µM | Cc1ncc([N+](=O)[O-])n1CCOC(=O)c1ccc(Nc2nnc(-c3cccc(Cl)c3)s2)cc1 [Compound 19, 2-(2-Methyl-5-nitro-1H-imidazol-1-yl)ethyl-4-{[5-(3-chlorophenyl)-1,3,4-thiadiazol-2-yl]amino}benzoate] | 31.8 ± 1.95% | 59.7 ± 8.82 µM | > 500 µM | ~50% | 53.10 ± 3.68% | >8.37 | >8.87
